Data from publication PMC5581131, “The novel sphingosine-1-phosphate receptors antagonist AD2900 affects lymphocyte activation and inhibits T-cell entry into the lymph nodes” (Oncotarget, 2017).

Columns and labels:
[1] = molecular target: T1, S1P2 (Homo sapiens, UniProt O95136); test: S1P2 antagonist test, S1P2 CRE-bla CHO cells; format: cell-based; settings: S1P2 CRE-BLA CHO cell line
T1 construct: expressed in transfected cells; host or cells: S1P2 CRE-bla CHO cells
Procedure: (§1) Since AD2900 is a sphingolipid analogue with properties that resemble those of S1P, we intended to examine its ability to interact with the S1P receptors. To delineate whether AD2900 can function as an agonistic or antagonistic compound to any of the S1P receptors, we used a high-throughput screening cell-based assay, employing cell lines stably transfected with human S1P receptors 1, 2, 3, 4, or 5 [37]. In this experiment, a compound with an IC50 or EC50 value ≤10 μM for a certain S1P receptor is considered active as an antagonist or an agonist, respectively. The results illustrate that AD2900 acts as an antagonist to all S1P receptors (Table 1, Supplementary Figure 3). […] No agonist activation was evident.
(§2) The S1P1 agonist test and S1P2, S1P3, S1P4, and S1P5 agonist and antagonist tests were conducted as previously described using S1P1 CRE-bla CHO cells, S1P2 CRE-bla CHO cells, S1P3 NFAT-bla CHO cells, Tango™ S1P4 (EDG6)-bla U-2 OS cells, and Tango™ S1P5 ([…])-bla U-2 OS cells. The S1P1 antagonist assay was carried out according to the manufacturer’s instructions using a Tango™ S1P1 (EDG1)-bla U-2 OS Cell-Based Assay (Invitrogen, NY, USA).

[2] = molecular target: T2, S1P3 (Homo sapiens, UniProt Q99500); test: S1P3 antagonist test, S1P3 NFAT-bla CHO cells; format: cell-based; settings: S1P3 NFAT-BLA CHO cell line
T2 construct: expressed in transfected cells; host or cells: S1P3 NFAT-bla CHO cells
Procedure: as §1, §2

[3] = test system: TNF-α; test: TNF-α secretion from activated PBMCs, ELISA; format: cell-based, human; settings: 1-day pretreatment, 5th day of MLR
Procedure: To better characterize the effect of AD2900 on activated PBMCs, the influence of AD2900 on apoptosis and cytokine secretion was tested. After 5 days of MLR, the cells were collected for apoptosis evaluation, while the supernatant was collected for ELISA test. Apoptosis was induced on the activated PBMCs only at higher concentrations of AD2900, above 10 μM (Figure 1C). Therefore, only a small part of the effect of AD2900 on the suppression of lymphocytic proliferation might be attributed to apoptosis. AD2900-induced inhibition of proliferation was accompanied by a reduced level of IFN-γ concentrations in the supernatant (Figure 1D).
Human PBLs were collected from human whole blood collected from healthy donors. Subsequently, the cells were centrifuged on a Ficoll-Paque gradient (Fresenius Kabi Norge AS, Oslo, Norway) and were isolated from the interphase layer. For the human MLR experiment, PBMCs from one healthy donor were pretreated for 1 day with AD2900, AD2730, AD2750, YZ297, YZ158, FTY720, or SEW2871. […] For the thymidine incorporation assay, after 4 days of co-culture, cells were pulsed with ^3H-thymidine at 1 μCi (0.037MBq) per well (PerkinElmer, MA, USA) for 16 additional hours and then harvested onto glass-fiber filters. ^3H-thymidine incorporation was measured using Top Count. […]

[4] = test system: murine splenocytes; test: Mouse allogeneic MLR with murine splenocytes; format: cell-based; settings: 1-day pretreatment, 3-day mice MLR; mean of up to, highest concentration
Procedure: Supplementary Figure 4: AD2900 inhibits mice splenocytes proliferation in allogeneic activation in vitro. In vivo- the […]
(A) The levels of proliferative response of mouse splenocytes after one day pretreatment with different concentrations of AD2900 were tested by mouse allogeneic mixed lymphocyte reaction (MLR) assay followed by a [3H] thymidine incorporation analysis. [3H] thymidine was incorporated for at least 16 hours at the 3rd day of the experiment. Significance is compared to untreated mice splenocytes. (B) C57BL/6 mice were orally administered AD2900 or FTY720. Leucocytes from blood, spleen and pLNs were collected and stained with TCR-β, CD62L and CD44 florescent antibodies and then analyzed by FACS analysis. The percent of CD62L+CD44+ (Tcm) like cells out of the total T cell population (TCR-β+) in blood, spleen and pLNs are shown. All the significances are compared to untreated healthy mice. Graphs summarize results of at least three independent experiments. Results of Student’s t test :*( P < 0.05, two-tailed test), ** (P < 0.01, two-tailed test), *** (P < 0.001, two-tailed test), **** (P < 0.0001, two-tailed test).
(also on this page, place not known: www.impactjournals.com/oncotarget/ Oncotarget, Materials 2017 Supplementary) […]

T1 sequence (O95136 whole entry): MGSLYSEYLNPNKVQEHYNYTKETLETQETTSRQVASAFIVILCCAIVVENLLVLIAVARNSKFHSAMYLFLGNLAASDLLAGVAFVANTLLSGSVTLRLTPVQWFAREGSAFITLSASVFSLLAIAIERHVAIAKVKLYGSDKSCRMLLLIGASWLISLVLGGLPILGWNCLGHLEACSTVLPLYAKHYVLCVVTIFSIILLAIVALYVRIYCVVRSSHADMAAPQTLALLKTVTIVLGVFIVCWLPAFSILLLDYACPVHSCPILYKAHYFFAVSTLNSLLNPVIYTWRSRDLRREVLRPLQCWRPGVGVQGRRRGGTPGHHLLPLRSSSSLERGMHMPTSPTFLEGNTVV
T2 sequence (Q99500 whole entry): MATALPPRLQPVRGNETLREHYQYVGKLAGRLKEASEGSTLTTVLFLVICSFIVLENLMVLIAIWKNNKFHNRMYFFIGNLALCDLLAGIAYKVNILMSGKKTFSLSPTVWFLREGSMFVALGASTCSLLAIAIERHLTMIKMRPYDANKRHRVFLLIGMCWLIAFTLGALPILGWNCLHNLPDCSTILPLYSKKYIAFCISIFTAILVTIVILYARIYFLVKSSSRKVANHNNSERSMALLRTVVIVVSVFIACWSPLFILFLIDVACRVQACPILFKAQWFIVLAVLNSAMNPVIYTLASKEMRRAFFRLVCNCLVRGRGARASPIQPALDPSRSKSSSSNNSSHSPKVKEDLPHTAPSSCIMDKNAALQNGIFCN

## CCCCCCCCCCCCCCCCNC(CO)(CO)CO [AD2900]
[1]
  IC50: 3.2 µM
[2]
  IC50: 6.2 µM
[3]
  TNF-α concentration in the culture media: not influenced
[4]
  inhibition of mice T-cell proliferation: 73% ± 3%
